Several values for one entry are separate records, joined by “and”; a condition that tells them apart may be missing. Identical values can stand only once.
System: HFHSD-fed obese C57BL6/J mice
Assay: Diet-induced thermogenesis
Assay type: in vivo, mouse
Details: for interscapular area temperature, Average: Figure 2S left panel; for interscapular area temperature, Average / inguinal area temperature, Average / rectal temperatures, Average / inguinal area temperature / interscapular area temperature / rectal temperatures: in °C; for inguinal area temperature, Average: Figure 2S middle panel; for rectal temperatures, Average: Figure 2S right panel; for inguinal area temperature / interscapular area temperature / rectal temperatures: Figure 2S, individual mice
Description: For the cold tolerance test, 24-week-old mice with matched average body weight from the two groups were placed individually on HFHSD in a 4 °C chamber. The rectal temperature of the mice was measured after 0, 1, 2, 3, 4, 5, 6, 12, and 18 h. For measuring diet-induced thermogenesis, 24-week-old mice were fasted overnight for 18 h. Then, we measured their rectal temperature at 0, 30, 60, 90, 120, 150, 180, and 240 min after HFHSD refeeding. The rectal and surface temperature were detected by thermal probes (Physitemp Therma TH-5, ThermoWorks, Alpine and MicroTherma 2T, ThermoWorks, Alpine, respectively).

In the case of `CCCCCC(=O)/C=C/[C@H]1[C@H](O)CC(=O)[C@@H]1C/C=C\CCCC(=O)O` [15-keto-PGE2, 15-keto-prostaglandin E2], the “interscapular, inguinal and rectal temperatures after HFHSD feeding” value (40 mg/kg/day ip, vs vehicle) was “higher interscapular, inguinal, and rectal temperatures after HFHSD feeding”, the “interscapular area temperature, Average” value (period 0 min) was 36.7067 and the “interscapular area temperature, Average” value (period 30 min) was 37.7933. For the same molecule, the “interscapular area temperature, Average” value (period 60 min) was 37.6333, the “interscapular area temperature, Average” value (period 120 min) was 37.5133 and the “interscapular area temperature, Average” value (period 180 min) was 37.3533. For the same molecule, the “interscapular area temperature, Average” value (period 240 min) was 37.1267, the “inguinal area temperature, Average” value (period 0 min) was 35.1463 and the “inguinal area temperature, Average” value (period 30 min) was 36.4001. The “inguinal area temperature, Average” value (period 60 min) was 36.234, the “inguinal area temperature, Average” value (period 120 min) was 35.9052 and the “inguinal area temperature, Average” value (period 180 min) was 35.7573. The “inguinal area temperature, Average” value (period 240 min) was 35.4703, the “rectal temperatures, Average” value (period 0 min) was 36.6549 and the “rectal temperatures, Average” value (period 30 min) was 37.7723. The “rectal temperatures, Average” value (period 60 min) was 37.6257, the “rectal temperatures, Average” value (period 120 min) was 37.398 and the “rectal temperatures, Average” value (period 180 min) was 37.3676. The “rectal temperatures, Average” value (period 240 min) was 37.1984, the inguinal area temperature (period 0 min) was 35.4 and 35.2 and 34.79 and 34.8 and 34.56 and 35 and 35.185 and 35.735 and 36 and 34.735 and 35.25 and 35.645 and 34.88 and 34.815 and the interscapular area temperature (period 0 min) was 36.9 and 37.4 and 36.4 and 36.8 and 36.6 and 37.8 and 35.4 and 36.2 and 37. The rectal temperatures (period 0 min) was 36.805 and 37.06 and 36.54 and 36.445, the inguinal area temperature (period 30 min) was 36.955 and 36.815 and 36.705 and 36.42 and 36.0964 and 35.905 and 36.6 and 35.865 and 35.975 and 36.115 and 36.825 and 36.785 and 36.43 and 36.095 and 36.415 and the interscapular area temperature (period 30 min) was 38.1 and 38.2 and 37.6 and 37.2 and 37.5 and 37.7 and 37.9 and 37.8. For the same molecule, the rectal temperatures (period 30 min) was 38.255 and 38.275 and 37.755 and 37.72, the inguinal area temperature (period 60 min) was 36.755 and 36.7 and 36.085 and 36.255 and 36.2 and 35.5 and 35.9 and 35.67 and 36.1 and 36.955 and 36.3 and 36.545 and 36.31 and 35.98 and the interscapular area temperature (period 60 min) was 38 and 38.3 and 37.8 and 37.5 and 37.7 and 37.4 and 37.6 and 37.2. The rectal temperatures (period 60 min) was 38.085 and 37.94 and 37.88 and 37.79, the inguinal area temperature (period 120 min) was 36.81 and 36.5 and 36.135 and 35.755 and 36.1679 and 35.38 and 35.6 and 35.29 and 35.4 and 36.16 and 36.2 and 35.9 and 36.075 and 35.355 and 35.85 and the interscapular area temperature (period 120 min) was 37.7 and 38.2 and 37.9 and 37.6 and 37.2 and 37.1 and 37.5 and 37.4 and 37.3. For the same molecule, the rectal temperatures (period 120 min) was 37.95 and 37.965 and 37.615, the inguinal area temperature (period 180 min) was 36.105 and 36.3 and 36.27 and 35.585 and 35.8 and 35.3 and 35.4 and 35.7 and 36.1 and 35.765 and 35.535 and the interscapular area temperature (period 180 min) was 37.5 and 38.4 and 37.6 and 37.4 and 36.5 and 37.2 and 37.1 and 36.9 and 37 and 37.8. For the same molecule, the rectal temperatures (period 180 min) was 37.665 and 37.81 and 37.52, the inguinal area temperature (period 240 min) was 35.995 and 36.065 and 35.575 and 35.82 and 35.715 and 35.26 and 35.2 and 35.6 and 36.2 and 35.1 and 35.12 and 34.905 and the interscapular area temperature (period 240 min) was 37.1 and 37.5 and 37 and 37.2 and 37.3 and 36.2 and 36.8 and 37.4 and 36.6. The rectal temperatures (period 240 min) was 37.705 and 37.57 and 37.21.
